The target of series [1] is T1, Lewy bodies in α-Syn A53T virus injected WT mice brain slices (Homo sapiens, UniProt P37840, A53T).
T1 construct: from tissue; host or cells: brain (substantia nigra) of wild-type mice injected with α-Syn A53T virus
The series is described as follows: staining of mouse brain slices with Lewy bodies. Format: binding. As to the method:
(§1) To further explore whether the positive compounds selectively bind to the Lewy bodies, α-Syn A53T patient-derived mutant virus injected WT mice brain slices were employed. These mice display extensive Lewy bodies in the SN.
(§2) To further explore whether the positive compounds selectively bind to the Lewy bodies, a α-Syn A53T patient-derived mutant virus was injected into WT mice brain slices. These mice display extensive Lewy bodies in the Substantial nigra (SN). Moreover, P301S mice expressed neurofibrillary tangles (NFT). The Lewy bodies were labeled with p-α-Syn S129 antibody and the positive aggregates were also labeled with the fluorescent signals from the small molecules. […] However, it was worth noting that almost none of the tested compounds were reactive with NFT.

Series [2] has as its target Tau PFFs (Homo sapiens, UniProt P10636). The experiment in a line: fluorescence spectroscopy titration with Tau PFFs. Format: binding. Conditions: 0.08 μM fibrils, 5 μM small molecule; result in words. Here is the method: (§3) A fluorescent titration assay was conducted. The fluorescent emission intensities were determined with 0.08 μM of various fibrils in the presence of 5 μM of the small molecules.
(§4) To further investigate the selected compounds binding activities with α-Syn PFFs, fluorescence spectroscopy titrations were conducted to quantitatively measure compounds emission intensity when interacting with different concentrations of α-Syn PFFs. The UV spectrum of each compound was determined and selected for the optimal wavelength to conduct the fluorescence spectroscopic studies.

Series [3] has as its target T2, Aβ PFFs (Homo sapiens, UniProt P05067).
T2 construct: counter-screening with Tau and Aβ PFFs
The series is described as follows: fluorescence spectroscopy titration with Aβ PFFs. Conditions: 0.08 μM fibrils, 5 μM small molecule; result in words. Format: binding. Here is the method:
as §3, §4

The target of series [4] is α-Syn PFFs (Homo sapiens, UniProt P37840). The experiment in a line: fluorescence spectroscopy titration with α-Syn PFFs. It counts as binding. The conditions noted are these: 0.08 μM fibrils, 5 μM small molecule, result in words. Here is the method:
as §3, §4

Series [5] is described as follows: plasma-brain ratio study / in vivo PK of EU compounds. On the set-up: species or system mouse. As to the method: To address whether the selected compounds penetrate the brain, a plasma-brain ratio study was performed with EU04-03A, EU05-02A and EU05-02B.
To test whether these compounds are brain permeable in vivo, in vivo PK profiling was conducted to determine brain exposure.

Series [6] has as its system α-Syn aggregated neurons. The series is described as follows: neuronal α-Syn aggregation model, fluorescent microscopy. It counts as cell-based. Conditions: primary cultured neurons, AAV-α-Syn plus α-Syn PFFs. The text has this: (§5) A series of derivatives were synthesized by including an amino group and a methyl group on benzothiazole to increase the brain permeability and fluorescent signals. The derivatives were subsequently subjected to α-Syn PFFs binding assay and counter-screening with Tau and Aβ PFFs. […] These compounds were screened on the neuronal α-Syn, Tau and Aβ aggregation model for the binding selectivity. Primary cultured neurons were infected with AAV-α-Syn, AAV-Tau FL for 7 days, then treated with α-Syn, Tau or Aβ PFFs. In a few days, the positive compounds were added in the primary neurons with indicated aggregates and analyzed under fluorescent microscopy.
(§6) Primary cultured neurons were infected with AAV-α-Syn, AAV-Tau FL or AAV-APP fragment virus for 7 days, and then treated with α-Syn, Tau or Aβ PFFs by following the described protocols (Volpicelli-Daley et al., 2014). In a few days, the positive compounds were added in the primary neurons with indicated aggregation.

Series [7] concerns neurons with Aβ or Tau aggregates. The experiment in a line: neuronal Aβ and Tau aggregation models, fluorescent microscopy. It counts as cell-based. The conditions noted are these: primary cultured neurons.
Source text: as §5, §6

The target in series [8] is T3, LBs and LNs in DLB and MSA patient brains (Homo sapiens, UniProt P37840).
T3 construct: from tissue; host or cells: brain sections of DLB and MSA patients
The experiment in a line: ex vivo screening on DLB and MSA patient brain sections. Format: binding. The source says:
(§7) Ex vivo screening was extended into human DLB, MSA and AD patient samples. […] Since there are detectable α-Syn aggregates in AD patient brains, these compounds colocalized with p-S129 positive α-Syn inclusions.
(§8) The ex vivo screening was extended into human DLB, MSA and AD patient samples. Neurodegenerative disease of DLB (dementia with Lewy Bodies) and MSA belongs to synucleinopathies with well-defined Lewy bodies.

The test system of series [9] is senile plaques or NFT in AD. The series is described as follows: ex vivo screening on AD patient brain sections. Format: binding, human.
Source text: as §7, §8

The target in series [10] is pre-formed fibrils (PFFs) of α-Synuclein (Homo sapiens, UniProt P37840). The series is described as follows: in vitro binding assay with α-Syn PFFs. Conditions: counter-screening, result in words.
Source text: The general strategy that was employed to screen the candidate Lewy body PET agents is summarized as follows: (a) To perform in vitro binding assay with Pre-formed fibrils (PFFs) of α-Syn and counter-screening with Tau and Aβ PFFs; (b) To test the positive compounds in the neuronal models with aggregated α-Syn, Tau or […]; (c) To screen with the brain slides from α-Syn mutant A53T virus injected WT mice, and counter-screen with aged 3×Tg (containing both senile plaques and NFT), and aged Tau P301S (NFT) brain sections; (d) to screen the patient brain sections from DLB and MSA against AD; (e) To determine the binding kinetics between α-Syn PFFs and positive hits; (f) To determine the candidates in vivo brain/plasma (B/P) ratios and the brain permeability; (g) To determine the in vivo PET images in α-Syn A53T with candidates and compare its images in 5XFAD and Tau P301S mice.
To perform in vitro binding assay, commercial compounds were screened (See FIG. 7B).
as §5
To perform in vitro binding assay, compounds were screened. […] An amino group and a methyl group in the benzothazole were added to increase its brain permeability and fluorescent signals. […] The synthesized derivatives were subsequently subjected to the α-Syn PFFs binding and counter-screen of Tau and Aβ PFFs as described above.

In series [11] the test system is NFT in Tau P301S and 3×Tg mice brain sections. The series is described as follows: staining of mouse brain sections with NFT. Format: binding. As to the method:
as §1, §2

The target of series [12] is T4, senile plaques in 5×FAD and 3×Tg mice brain sections (Homo sapiens, UniProt P05067).
T4 construct: Aβ-enriched senile plaques; from tissue; host or cells: brain sections of 5×FAD and 3×Tg mice
The series is described as follows: staining of mouse brain sections with senile plaques. Format: binding.

SMILES strings stand for the structures. Several values for one entry are separate records, joined by “and”; a condition that tells them apart may be missing. Equal entries are not always repeated. Entries after “also recorded” stand apart in the source; their conditions may differ. Where two headings read alike, the source gives them in different places.

Tau PFFs, sequence (P10636 whole entry): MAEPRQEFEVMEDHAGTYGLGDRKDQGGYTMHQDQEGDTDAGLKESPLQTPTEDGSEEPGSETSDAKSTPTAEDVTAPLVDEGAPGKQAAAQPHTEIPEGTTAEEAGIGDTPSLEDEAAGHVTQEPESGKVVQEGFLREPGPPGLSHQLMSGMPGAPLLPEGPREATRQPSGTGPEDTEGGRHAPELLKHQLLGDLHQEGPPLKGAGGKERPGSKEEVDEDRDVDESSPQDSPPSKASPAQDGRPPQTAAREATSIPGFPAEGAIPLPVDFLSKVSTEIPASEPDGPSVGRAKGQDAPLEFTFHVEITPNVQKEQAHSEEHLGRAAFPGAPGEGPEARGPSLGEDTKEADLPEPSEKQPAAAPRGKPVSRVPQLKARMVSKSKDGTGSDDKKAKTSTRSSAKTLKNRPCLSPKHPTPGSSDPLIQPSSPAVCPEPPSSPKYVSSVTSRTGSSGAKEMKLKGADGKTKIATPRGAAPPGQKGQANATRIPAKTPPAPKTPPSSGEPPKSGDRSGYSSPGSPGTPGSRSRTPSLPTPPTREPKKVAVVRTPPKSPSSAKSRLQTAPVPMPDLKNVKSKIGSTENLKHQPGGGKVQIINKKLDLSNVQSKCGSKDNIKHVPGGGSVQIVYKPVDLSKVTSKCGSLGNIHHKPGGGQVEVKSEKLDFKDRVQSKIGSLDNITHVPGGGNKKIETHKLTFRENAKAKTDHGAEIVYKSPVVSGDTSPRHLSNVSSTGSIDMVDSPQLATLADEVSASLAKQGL
T4 sequence (P05067 672-713 limits assumed): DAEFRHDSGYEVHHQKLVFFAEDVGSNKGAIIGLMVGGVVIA
T2 sequence (P05067 672-713 limits assumed): as above

As to `COc1cc(/C=C/c2nc3ccc(N(C)C)cc3s2)ccc1O` [EU-004-02A, (E)-4-(2-(6-(dimethylamino)benzo[d]thiazol-2-yl)vinyl)-2-methoxyphenol], the “staining of Lewy bodies (p-α-Syn S129 positive)” value in [1] is reported as “signals were very weak”.

Turning to `CN(C)c1ccc2nc(/C=C/c3ccc(O)c(Br)c3)sc2c1` [EU-004-02B, (E)-2-bromo-4-(2-(6-(dimethylamino)benzo[d]thiazol-2-yl)vinyl)phenol], in series [2], the “binding to Tau PFFs by fluorescent emission intensity” value is “modest and weak binding activities toward these 3 PFFs”. For the same molecule, the “binding to Aβ PFFs by fluorescent emission intensity” value in series [3] was “modest and weak binding activities toward these 3 PFFs”. Moreover, the “binding to α-Syn PFFs by fluorescent emission intensity” value (“binding to α-Syn PFFs” for short) in series [4] was “modest and weak binding activities toward these 3 PFFs”.

Take `CCNc1ccc2nc(/C=C/c3ccc(O)c(OC)c3)sc2c1` [EU-004-03A, (E)-4-(2-(6-(ethylamino)benzo[d]thiazol-2-yl)vinyl)-2-methoxyphenol]: in series [5] (mice, i.v., result in words, listed as EU04-03A), the brain permeability entry was “swiftly penetrated the brain and exhibited much higher brain permeability compared to EU05-02A; also recorded: higher brain permeability than EU05-02B”. Further, the results for the “fluorescent signal in α-Syn aggregated neurons” value in series [6] and in series [6] (listed as EU04-03A) were “positive for selective binding” and “positive signals in α-Syn aggregated neurons”, respectively. Moreover, the “fluorescent signal in neurons with Aβ or Tau aggregates” value in [7] is “negligible effects in neurons with Aβ or Tau aggregates”. Besides, the “staining of LBs and LNs” value in series [8] is “robust signals with LBs and LNs”; in [8] (listed as EU04-03A) it was “co-stained with Lewy bodies”. Further, in [4], the “binding to α-Syn PFFs” value was “but not EU-05-02A and EU-04-03A showed specific association with the PFFs”. In addition, the “staining of senile plaques or NFT (Aβ, AT8 positive aggregates)” value in [9] was “barely co-stained with anti-AD or AT8 positive aggregate signals”; in [9] (listed as EU04-03A), “barely recognized AT8 positive Tau NFT or Aβ aggregates in AD brains”.

For the molecule `COc1cc(/C=C/c2nc3cc(C)c(N(C)C)cc3s2)ccc1O` [EU-005-02A, (E)-4-(2-(6-(dimethylamino)-5-methylbenzo[d]thiazol-2-yl)vinyl)-2-methoxyphenol], the B/P in series [5] (Male ICR Mouse, 5 mg/kg IV, 0.50 h, single animals, 5 mg/kg) was 0.65 and 1.62 and 0.69; in series [5] (Male ICR Mouse, 5 mg/kg IV, 1.00 h, single animals, 5 mg/kg), 0.46 and 0.26; in series [5] (Male ICR Mouse, 5 mg/kg IV, 2.00 h, single animals, 5 mg/kg), 0.49 and 0.34. In series [5] (male, ICR, mouse, brain, iv, 5 mg/kg, Male ICR Mouse, 5 mg/kg IV, 0.50 h, read-out: B/P Mean), the Kp at 0.5 h came out at 0.99. The Kp at 1 h came out at 0.52 in series [5] (male, ICR, mouse, brain, iv, 5 mg/kg, Male ICR Mouse, 5 mg/kg IV, 1.00 h, single animals, read-out: B/P) and 0.41 in [5] (male, ICR, mouse, brain, iv, 5 mg/kg, Male ICR Mouse, 5 mg/kg IV, 1.00 h, read-out: B/P Mean). The Kp at 2 h was 0.42 in [5] (male, ICR, mouse, brain, iv, 5 mg/kg, Male ICR Mouse, 5 mg/kg IV, 2.00 h, single animals, read-out: B/P) and 0.41 in series [5] (male, ICR, mouse, brain, iv, 5 mg/kg, Male ICR Mouse, 5 mg/kg IV, 2.00 h, read-out: B/P Mean). Besides, the “in vivo half-life / decay” value in series [5] (mice, i.v. 5 mg/kg, result in words) was “decayed 2 h after i.v. administration”. The “fluorescent signal in α-Syn aggregated neurons” value in [6] is given as “positive for selective binding”; in [6] (listed as EU05-02A), “positive signals in α-Syn aggregated neurons”. The “staining of Lewy bodies (p-α-Syn S129 positive)” value in series [1] is on record as “signals were very weak”. Further, the “binding to Tau PFFs by fluorescent emission intensity” value in series [2] was “strongly bound to both α-Syn and Tau PFFs”. Besides, in [7], the “fluorescent signal in neurons with Aβ or Tau aggregates” value is “negligible effects in neurons with Aβ or Tau aggregates”. In addition, the “staining of LBs and LNs” value is “robust signals with LBs and LNs” in series [8]; “co-stained with Lewy bodies” in [8] (listed as EU05-02A). For the same molecule, the “binding to α-Syn PFFs” value is “strongly bound to both α-Syn and Tau PFFs” in series [4]; “but not EU-05-02A and EU-04-03A showed specific association with the PFFs” in series [4] (listed as EU-05-02A). The “staining of senile plaques or NFT (Aβ, AT8 positive aggregates)” value in [9] is recorded as “barely co-stained with anti-AD or AT8 positive aggregate signals”; in series [9] (listed as EU05-02A) it was “barely recognized AT8 positive Tau NFT or Aβ aggregates in AD brains”.

Consider `Cc1ccc2c(c1)sc(-c1ccc(N(C)C)cc1)[n+]2C.[Cl-]` [ThT, reference compound], for which the “binding selectivity α-Syn versus Aβ or Tau PFFs” value in series [10] was “non-selectively interacted with these PFFs; also recorded: non-selectively interacted with both α-Syn and Tau PFFs”. Also, the “staining of Lewy bodies (p-α-Syn S129 positive)” value in series [1] is “co-localized with all of these aggregates in the brain sections; also recorded: co-localized with p-S129 aggregates in the brain sections”. Besides, the “staining of NFT” value in series [11] is recorded as “co-localized with all of these aggregates in the brain sections”. The “staining of senile plaques” value in [12] is “co-localized with all of these aggregates in the brain sections”.

Values taken from patent US11844846B2, “Styrylbenzothiazole derivatives and uses in imaging methods” (Emory University, priority 2018, dated 2023).
